Results as given in PMC8653649, “Promising Hybrids Derived from S-Allylcysteine and NSAIDs Fragments against Colorectal Cancer: Synthesis, In-vitro Evaluation, Drug-Likeness and In-silico ADME/tox Studies” (Iranian Journal of Pharmaceutical Research : IJPR, 2021).
Read-outs that look alike come from different tables or passages of the source.

How the values were obtained:
[1] = tested on: SW480 human colon adenocarcinoma cells; assay: Sulforhodamine B (SRB) growth inhibition / cytotoxicity, SW480; type: cell-based; settings: for IC50: Homo sapiens, SRB, mean ± SE; for IC50 / cytotoxic activity (in words): SW480; for cytotoxic activity (in words): 24 h and 48 h after treatment; for SI (selectivity index): ratio IC50 CHO-K1 / IC50 SW480;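 on all read-outs here: cells exposed to graded doses from 10^-5 to 0.2 mM, with 1% DMSO as vehicle control, and cellular protein quantified by SRB staining after trichloroacetic acid fixation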
Procedure: Cells were cultured in 25-cm^2 flasks containing Dulbecco’s Modified Eagle Medium, supplemented with 10% heat-inactivated (56 °C) horse serum, 1% penicillin/streptomycin and 1% non-essential amino acids (Gibco Invitrogen, Carlsbad, USA). For all experiments, horse serum was reduced to 3%, and the medium was supplemented with 5 mg/mL transferrin, 5 mg/mL selenium and 10 mg/mL insulin (ITS-defined medium; Gibco, Invitrogen, Carlsbad, USA) ([33]).

[2] = tested on: non-malignant CHO-K1 cell line; assay: Sulforhodamine B (SRB) growth inhibition / cytotoxicity, CHO-K1; type: cell-based; settings: Cricetulus griseus, mean ± SE, read-out: IC50 (mM) CHO-K1 cells
Procedure: Biological assays were performed using adenocarcinoma colon cancer (SW480) and non-malignant (CHO-K1) cell lines obtained from The European Collection of Authenticated Cell Cultures (ECACC, England). Cells were cultured in 25-cm^2 flasks containing Dulbecco’s Modified Eagle Medium, supplemented with 10% heat-inactivated (56 °C) horse serum, 1% penicillin/streptomycin and 1% non-essential amino acids (Gibco Invitrogen, Carlsbad, USA). For all experiments, horse serum was reduced to 3%, and the medium was supplemented with […] (ITS-defined medium; Gibco, Invitrogen, Carlsbad, USA) ([33]).
The growth inhibition of the ethanol extract, the Chromone and 5-fluorouracil (5-FU; the standard drug) was evaluated through sulforhodamine B (SRB) assay, a colorimetric test that is based on staining of total cellular protein of adherent cells. Cells were seeded to a ﬁnal density of 20.000 cells/well in 96-well tissue culture plates and incubated at 37 °C in a humidified atmosphere at 5% CO2. All cultures were allowed to grow for 24 h. Afterward, they were treated with 1% of DMSO (vehicle control) or increasing concentrations (10^-5–0,2 mM) of the compounds. After treatment, cells were fixed with trichloroacetic acid (50% v/v; MERCK) for one hour at 4 °C. Cell proteins were determined by staining with SRB (0.4% w/v; Sigma-Aldrich, United States), then they were washed with 1% acetic acid to remove unbound SRB and left for air-drying. Protein-bound SRB was solubilized in 10 mM Tris-base, and the absorbance was measured at 492 nm in a microplate reader (Mindray MR-96A) ([33], [34]). All experiments were performed in quintuplicate. These values were used to calculate the IC50, through dose-response curves for each compound and the selectivity index (SI), by the ratio of IC50 values in non-malignant CHO-K1 cells to IC50 of SW480 cells.
All experiments were performed at least three times. Data are reported as mean ± SE (standard error). Statistical differences between the control group (non-treated) and treated cells were evaluated by one-way ANOVA followed by the Dunnett’s test. Values with p ≤ 0.05 were considered significant. Data were analyzed with GraphPad Prism version 7.04 for Windows (Graph Pad Software, San Diego, California, USA).

non-cancer CCD841 cells = tested on: non-cancer CCD841 cells; parameters: method as in PMID 30429977; settings: compared with CRC cell lines; cited from earlier work

C=CCSC[C@H](NC(=O)C(C)c1ccc2cc(OC)ccc2c1)C(=O)OC (mixture of isomers) [11a, Methyl S-allyl-N-(2-(6-methoxynaphthalen-2-yl)propanoyl)-L-cysteinate]
IC50 ([1]; 24 h): > 0.2 mM | IC50 ([1]; 48 h): > 0.2 mM | cytotoxic activity (in words) [1]: displayed activity neither 24 h nor 48 h | IC50 ([2]; 24 h): > 0.2 mM | IC50 ([2]; 48 h): > 0.2 mM

C=CCSC[C@H](NC(=O)C(C)c1ccc2cc(OC)ccc2c1)C(=O)OCC (mixture of isomers) [11b, Ethyl S-allyl-N-(2-(6-methoxynaphthalen-2-yl)propanoyl)-L-cysteinate]
SI (selectivity index) ([1]; 48 h): >1.28 | IC50 ([1]; 24 h): > 0.2 mM | IC50 ([1]; 48 h): 0.156 ± 0.008 mM | IC50 ([2]; 24 h): > 0.2 mM | IC50 ([2]; 48 h): > 0.2 mM

C=CCSC[C@H](NC(=O)C(C)c1ccc2cc(OC)ccc2c1)C(=O)OCCC (mixture of isomers) [11c, Propyl S-allyl-N-(2-(6-methoxynaphthalen-2-yl)propanoyl)-L-cysteinate]
IC50 ([1]; 24 h): > 0.2 mM | IC50 ([1]; 48 h): 0.237 ± 0.012 mM | cytotoxic activity (in words) [1]: displayed activity neither 24 h nor 48 h | IC50 ([2]; 24 h): > 0.2 mM | IC50 ([2]; 48 h): > 0.2 mM

C=CCSC[C@H](NC(=O)C(C)c1ccc(CC(C)C)cc1)C(=O)OC (mixture of isomers) [12a, Methyl S-allyl-N-(2-(4-isobutylphenyl)propanoyl)-L-cysteinate]
SI (selectivity index) ([1]; 48 h): 0.82 | IC50 ([1]; 24 h): > 0.2 mM | IC50 ([1]; 48 h): 0.244 ± 0.011 mM | cytotoxic activity (in words) [1]: displayed activity neither 24 h nor 48 h | IC50 ([2]; 24 h): > 0.2 mM | IC50 ([2]; 48 h): 0.201 ± 0.001 mM | melting point: 89 to 91 °C

C=CCSC[C@H](NC(=O)C(C)c1ccc(CC(C)C)cc1)C(=O)OCC (mixture of isomers) [12b, Ethyl S-allyl-N-(2-(4-isobutylphenyl)propanoyl)-L-cysteinate]
SI (selectivity index) ([1]; 48 h): 1.31 | IC50 ([1]; 24 h): > 0.2 mM | IC50 ([1]; 48 h): 0.183 ± 0.005 mM | IC50 ([2]; 24 h): > 0.2 mM | IC50 ([2]; 48 h): 0.241 ± 0.018 mM | melting point: 65 to 67 °C

C=CCSC[C@H](NC(=O)C(C)c1ccc(CC(C)C)cc1)C(=O)OCCC (mixture of isomers) [12c, Propyl S-allyl-N-(2-(4-isobutylphenyl)propanoyl)-L-cysteinate]
SI (selectivity index) ([1]; 24 h): >1.1 | IC50 ([1]; 24 h): 0.225 ± 0.01 mM | IC50 ([1]; 48 h): 0.209 ± 0.005 mM | cytotoxic activity (in words) [1]: displayed activity neither 24 h nor 48 h | IC50 ([2]; 24 h): > 0.2 mM | IC50 ([2]; 48 h): > 0.2 mM | melting point: 58 to 60 °C

O=c1[nH]cc(F)c(=O)[nH]1 [5-Fluorouracil, reference compound]
SI (selectivity index) ([1]; 48 h): 1.22 | SI (selectivity index) ([1]; 48 h, listed as 5-fluorouracil): higher than 1 | IC50 ([1]; 24 h): 0.096 ± 0.024 mM | IC50 ([1]; 48 h): 0.037 ± 0.013 mM | IC50 ([2]; 24 h): 0.125 ± 0.022 mM | IC50 ([2]; 48 h): 0.046 ± 0.015 mM

C=CCSC[C@H](NC(=O)c1ccccc1O)C(=O)OC [9a, Methyl S-allyl-N-(2-hydroxybenzoyl)-L-cysteinate]
SI (selectivity index) ([1]; 24 h): <0.73 | SI (selectivity index) ([1]; 48 h): <0.80 | IC50 ([1]; 24 h): > 0.2 mM | IC50 ([1]; 48 h): > 0.2 mM | cytotoxic activity (in words) [1]: displayed activity neither 24 h nor 48 h | IC50 ([2]; 24 h): 0.146 ± 0.016 mM | IC50 ([2]; 48 h): 0.157 ± 0.005 mM | melting point: 112 to 114 °C

C=CCSC[C@H](NC(=O)c1ccccc1O)C(=O)OCC [9b, Ethyl S-allyl-N-(2-hydroxybenzoyl)-L-cysteinate]
SI (selectivity index) ([1]; 24 h): >1.25 | IC50 ([1]; 24 h): 0.16 ± 0.013 mM | IC50 ([1]; 48 h): > 0.2 mM | IC50 ([2]; 24 h): > 0.2 mM | IC50 ([2]; 48 h): > 0.2 mM

C=CCSC[C@H](NC(=O)c1ccccc1O)C(=O)OCCC [9c, Propyl S-allyl-N-(2-hydroxybenzoyl)-L-cysteinate]
IC50 ([1]; 24 h): > 0.2 mM | IC50 ([1]; 48 h): > 0.2 mM | cytotoxic activity (in words) [1]: displayed activity neither 24 h nor 48 h | IC50 ([2]; 24 h): > 0.2 mM | IC50 ([2]; 48 h): > 0.2 mM

C=CCSC[C@H](NC(=O)Cc1ccccc1Nc1c(Cl)cccc1Cl)C(=O)OC [10a, Methyl S-allyl-N-(2-(2-((2,6-dichlorophenyl)amino)phenyl)acetyl)-L-cysteinate]
IC50 ([1]; 24 h): 0.192 ± 0.004 mM | IC50 ([1]; 48 h): 0.12 ± 0.004 mM | IC50 ([2]; 24 h): 0.18 ± 0.012 mM | IC50 ([2]; 48 h): 0.112 ± 0.008 mM

C=CCSC[C@H](NC(=O)Cc1ccccc1Nc1c(Cl)cccc1Cl)C(=O)OCC [10b, Ethyl S-allyl-N-(2-(2-((2,6-dichlorophenyl)amino)phenyl)acetyl)-L-cysteinate]
SI (selectivity index) ([1]; 48 h): >1.53 | IC50 ([1]; 24 h): 0.24 ± 0.013 mM | IC50 ([1]; 48 h): 0.131 ± 0.012 mM | IC50 ([2]; 24 h): > 0.2 mM | IC50 ([2]; 48 h): > 0.2 mM

C=CCSC[C@H](NC(=O)Cc1ccccc1Nc1c(Cl)cccc1Cl)C(=O)OCCC [10c, Propyl S-allyl-N-(2-(2-((2,6-dichlorophenyl)amino)phenyl)acetyl)-L-cysteinate]
SI (selectivity index) ([1]; 24 h): 1.09 | SI (selectivity index) ([1]; 48 h): 1.06 | IC50 ([1]; 24 h): 0.204 ± 0.005 mM | IC50 ([1]; 48 h): 0.158 ± 0.002 mM | IC50 ([2]; 24 h): 0.223 ± 0.005 mM | IC50 ([2]; 48 h): 0.167 ± 0.1 mM

CC(=O)Oc1ccccc1C(=O)O [Aspirin, reference compound]
IC50 ([1]; 24 h): > 0.2 mM | IC50 ([1]; 48 h): > 0.2 mM | IC50 ([2]; 24 h): > 0.2 mM | IC50 ([2]; 48 h): > 0.2 mM

O=C(O)Cc1ccccc1Nc1c(Cl)cccc1Cl [Diclofenac, reference compound]
SI (selectivity index) ([1]; 48 h): 0.98 | IC50 ([1]; 24 h): 0.267 ± 0.01 mM | IC50 ([1]; 48 h): 0.206 ± 0.011 mM | IC50 ([2]; 24 h): > 0.2 mM | IC50 ([2]; 48 h): 0.202 ± 0.001 mM

CC(C)Cc1ccc(C(C)C(=O)O)cc1 (stereo not drawn) [Ibuprofen, reference compound]
IC50 ([1]; 24 h): > 0.2 mM | IC50 ([1]; 48 h): > 0.2 mM | IC50 ([2]; 24 h): > 0.2 mM | IC50 ([2]; 48 h): > 0.2 mM

COc1ccc2cc([C@H](C)C(=O)O)ccc2c1 [Naproxen, reference compound]
IC50 ([2]; 24 h): > 0.2 mM | IC50 ([2]; 48 h): > 0.2 mM

COc1ccc(/C=C/C(=O)c2ccc(Cl)cc2)c(OC(=O)c2ccccc2OC(C)=O)c1 [compound 4]
fold less inhibitory activity against non-cancer CCD841 cells (non-cancer CCD841 cells): 8 fold
